target: IDO1 (Homo sapiens, UniProt P14902); experiment: IDO1 Cellular Assay in HeLa Cells Stimulated with IFNγ; format: cell-based; settings: HeLa Cell Potency, IC50 (nM)
Sequence (P14902 whole entry): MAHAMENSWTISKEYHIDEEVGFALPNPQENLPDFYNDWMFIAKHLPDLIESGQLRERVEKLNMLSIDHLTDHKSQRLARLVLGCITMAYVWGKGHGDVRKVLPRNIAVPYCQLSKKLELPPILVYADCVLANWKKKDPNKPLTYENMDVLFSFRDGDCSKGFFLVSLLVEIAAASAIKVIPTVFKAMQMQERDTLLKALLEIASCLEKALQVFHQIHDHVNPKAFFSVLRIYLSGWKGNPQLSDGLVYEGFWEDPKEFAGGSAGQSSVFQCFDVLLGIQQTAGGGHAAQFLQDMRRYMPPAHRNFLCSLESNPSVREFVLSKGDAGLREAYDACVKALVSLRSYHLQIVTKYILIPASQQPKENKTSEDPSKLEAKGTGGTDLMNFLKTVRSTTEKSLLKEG

With `Cc1cccc(N2CCN(C(=O)Cn3nc(C(=O)N4CCC(=O)CC4)c4c3C[C@H]3C[C@@H]43)CC2)c1C` [Example 265, 1-[(3bR,4aR)-1-{2-[4-(2,3-dimethylphenyl)piperazin-1-yl]-2-oxoethyl}-3b,4,4a,5-tetrahydro-1H-cyclopropa[3,4]cyclopenta[1,2-c]pyrazole-3-carbonyl]piperidin-4-one] as the compound, how does the IC50 read?
The IC50 was under 0.51 nM.

same assay, conditions: read-out: HeLa Cell Potency, IC50

For `Cc1cccc(N2CCN(C(=O)Cn3nc(C(=O)N4CCC(CO)CC4)c4c3C[C@H]3C[C@@H]43)CC2)c1C` [Example 249, 1-[4-(2,3-dimethylphenyl)piperazin-1-yl]-2-{(3bR,4aR)-3-[4-(hydroxymethyl)piperidine-1-carbonyl]-3b,4,4a,5-tetrahydro-1H-cyclopropa[3,4]cyclopenta[1,2-c]pyrazol-1-yl}ethan-1-one], which IC50 is on record?
Its IC50 is 0.62 nM.

With `Cc1cccc(N2CCN(C(=O)Cn3nc(C(=O)N4CCN(CC(F)(F)F)CC4)c4c3C[C@H]3C[C@@H]43)CC2)c1C` [Example 250, 1-[4-(2,3-dimethylphenyl)piperazin-1-yl]-2-{(3bR,4aR)-3-[4-(2,2,2-trifluoroethyl)piperazine-1-carbonyl]-3b,4,4a,5-tetrahydro-1H-cyclopropa[3,4]cyclopenta[1,2-c]pyrazol-1-yl}ethan-1-one] as the compound, how does the IC50 read?
The IC50 was 0.94 nM.

`Cc1cccc(N2CCN(C(=O)Cn3nc(C(=O)N4CC[C@H](CO)C4)c4c3C[C@H]3C[C@@H]43)CC2)c1C` [Example 251, 1-[4-(2,3-dimethylphenyl)piperazin-1-yl]-2-{(3bR,4aR)-3-[(3S)-3-(hydroxymethyl)pyrrolidine-1-carbonyl]-3b,4,4a,5-tetrahydro-1H-cyclopropa[3,4]cyclopenta[1,2-c]pyrazol-1-yl}ethan-1-one] was tested. Which IC50 did it give?
Its IC50 is 0.94 nM.

How did the IC50 turn out when `Cc1cccc(N2CCN(C(=O)Cn3nc(C(=O)N4CC[C@@H](CO)C4)c4c3C[C@H]3C[C@@H]43)CC2)c1C` [Example 252, 1-[4-(2,3-dimethylphenyl)piperazin-1-yl]-2-{(3bR,4aR)-3-[(3R)-3-(hydroxymethyl)pyrrolidine-1-carbonyl]-3b,4,4a,5-tetrahydro-1H-cyclopropa[3,4]cyclopenta[1,2-c]pyrazol-1-yl}ethan-1-one] was run?
Its IC50 is 1.5 nM.

For `Cc1cccc(N2CCN(C(=O)Cn3nc(C(=O)N4CCC(N5CCNC5=O)CC4)c4c3C[C@H]3C[C@@H]43)CC2)c1C` [Example 253, 1-{1-[(3bR,4aR)-1-{2-[4-(2,3-dimethylphenyl)piperazin-1-yl]-2-oxoethyl}-3b,4,4a,5-tetrahydro-1H-cyclopropa[3,4]cyclopenta[1,2-c]pyrazole-3-carbonyl]piperidin-4-yl}imidazolidin-2-one], which IC50 is on record?
The IC50 was 1.52 nM.

Which IC50 does the source give for `CNC(=O)C1CCN(C(=O)c2nn(CC(=O)N3CCN(c4cccc(C)c4C)CC3)c3c2[C@@H]2C[C@@H]2C3)CC1` [Example 254, 1-[(3bR,4aR)-1-{2-[4-(2,3-dimethylphenyl)piperazin-1-yl]-2-oxoethyl}-3b,4,4a,5-tetrahydro-1H-cyclopropa[3,4]cyclopenta[1,2-c]pyrazol-3-carbonyl]-N-methylpiperidine-4-carboxamide] here?
The IC50 was 1.71 nM.

With `Cc1cccc(N2CCN(C(=O)Cn3nc(C(=O)N4CCC(NC(N)=O)CC4)c4c3C[C@H]3C[C@@H]43)CC2)c1C` [Example 255, N-{1-[(3bR,4aR)-1-{2-[4-(2,3-dimethylphenyl)piperazin-1-yl]-2-oxoethyl}-3b,4,4a,5-tetrahydro-1H-cyclopropa[3,4]cyclopenta[1,2-c]pyrazole-3-carbonyl]piperidin-4-yl}urea] as the compound, how does the IC50 read?
Its IC50 is 13.1 nM.

How did the IC50 turn out when `CC(=O)N(C)C1CCN(C(=O)c2nn(CC(=O)N3CCN(c4cccc(C)c4C)CC3)c3c2[C@@H]2C[C@@H]2C3)CC1` [Example 256, N-{1-[(3bR,4aR)-1-{2-[4-(2,3-dimethylphenyl)piperazin-1-yl]-2-oxoethyl}-3b,4,4a,5-tetrahydro-1H-cyclopropa[3,4]cyclopenta[1,2-c]pyrazole-3-carbonyl]piperidin-4-yl}-N-methylacetamide] was run?
Its IC50 is 0.83 nM.

How did the IC50 turn out when `Cc1cccc(N2CCN(C(=O)Cn3nc(C(=O)N4CCC(NC(=O)C5CC5)CC4)c4c3C[C@H]3C[C@@H]43)CC2)c1C` [Example 257, N-{1-[(3bR,4aR)-1-{2-[4-(2,3-dimethylphenyl)piperazin-1-yl]-2-oxoethyl}-3b,4,4a,5-tetrahydro-1H-cyclopropa[3,4]cyclopenta[1,2-c]pyrazole-3-carbonyl]piperidin-4-yl}cyclopropanecarboxamide] was run?
The IC50 was 1.05 nM.

For `Cc1cccc(N2CCN(C(=O)Cn3nc(C(=O)N4CCC(N5CCC5)CC4)c4c3C[C@H]3C[C@@H]43)CC2)c1C` [Example 258, 2-{(3bR,4aR)-3-[4-(azetidin-1-yl)piperidine-1-carbonyl]-3b,4,4a,5-tetrahydro-1H-cyclopropa[3,4]cyclopenta[1,2-c]pyrazol-1-yl}-1-[4-(2,3-dimethylphenyl)piperazin-1-yl]ethan-1-one], which IC50 is on record?
Its IC50 is 2.95 nM.

How did the IC50 turn out when `Cc1cccc(N2CCN(C(=O)Cn3nc(C(=O)N4CCC(O)(CN5CCCCC5)CC4)c4c3C[C@H]3C[C@@H]43)CC2)c1C` [Example 259, 1-[4-(2,3-dimethylphenyl)piperazin-1-yl]-2-[(3bR,4aR)-3-{4-hydroxy-4-[(piperidin-1-yl)methyl]piperidine-1-carbonyl}-3b,4,4a,5-tetrahydro-1H-cyclopropa[3,4]cyclopenta[1,2-c]pyrazol-1-yl]ethan-1-one] was run?
Its IC50 is 9.62 nM.

How did the IC50 turn out when `Cc1cccc(N2CCN(C(=O)Cn3nc(C(=O)N4CCN(CC(F)F)CC4)c4c3C[C@H]3C[C@@H]43)CC2)c1C` [Example 260, 2-{(3bR,4aR)-3-[4-(2,2-difluoroethyl)piperazine-1-carbonyl]-3b,4,4a,5-tetrahydro-1H-cyclopropa[3,4]cyclopenta[1,2-c]pyrazol-1-yl}-1-[4-(2,3-dimethyl-phenyl)piperazin-1-yl]ethan-1-one] was run?
The IC50 was 0.84 nM.

With `Cc1cccc(N2CCN(C(=O)Cn3nc(C(=O)N4CC[C@@H](O)C[C@@H]4C)c4c3C[C@H]3C[C@@H]43)CC2)c1C` [Example 261, 1-[4-(2,3-dimethylphenyl)piperazin-1-yl]-2-{(3bR,4aR)-3-[(2S,4R)-4-hydroxy-2-methylpiperidine-1-carbonyl]-3b,4,4a,5-tetrahydro-1H-cyclopropa[3,4]cyclopenta[1,2-c]pyrazol-1-yl}ethan-1-one] as the compound, how does the IC50 read?
The IC50 was 0.95 nM.

How did the IC50 turn out when `Cc1cccc(N2CCN(C(=O)Cn3nc(C(=O)N4CC[C@H](C(C)(C)O)C4)c4c3C[C@H]3C[C@@H]43)CC2)c1C` [Example 262, 1-[4-(2,3-dimethylphenyl)piperazin-1-yl]-2-{(3bR,4aR)-3-[(3S)-3-(2-hydroxypropan-2-yl)pyrrolidine-1-carbonyl]-3b,4,4a,5-tetrahydro-1H-cyclopropa[3,4]cyclopenta[1,2-c]pyrazol-1-yl}ethan-1-one] was run?
Its IC50 is 0.82 nM.

For `Cc1cccc(N2CCN(C(=O)Cn3nc(C(=O)N4CCC(O)(CO)CC4)c4c3C[C@H]3C[C@@H]43)CC2)c1C` [Example 263, 1-[4-(2,3-dimethylphenyl)piperazin-1-yl]-2-{(3bR,4aR)-3-[4-hydroxy-4-(hydroxymethyl)piperidine-1-carbonyl]-3b,4,4a,5-tetrahydro-1H-cyclopropa[3,4]cyclopenta[1,2-c]pyrazol-1-yl}ethan-1-one], which IC50 is on record?
Its IC50 is 0.75 nM.

`Cc1cccc(N2CCN(C(=O)Cn3nc(C(=O)N4CCC(O)C(CO)C4)c4c3C[C@H]3C[C@@H]43)CC2)c1C` (stereo partly drawn) [Example 264, 1-[4-(2,3-dimethylphenyl)piperazin-1-yl]-2-{(3bR,4aR)-3-[4-hydroxy-3-(hydroxymethyl)piperidine-1-carbonyl]-3b,4,4a,5-tetrahydro-1H-cyclopropa[3,4]cyclopenta[1,2-c]pyrazol-1-yl}ethan-1-one] was tested. Which IC50 did it give?
Its IC50 is 1.28 nM.

With `Cc1cccc(N2CCN(C(=O)Cn3nc(C(=O)N4CC[S+]([O-])CC4)c4c3C[C@H]3C[C@@H]43)CC2)c1C` [Example 266, 4-[(3bR,4aR)-1-{2-[4-(2,3-dimethylphenyl)piperazin-1-yl]-2-oxoethyl}-3b,4,4a,5-tetrahydro-1H-cyclopropa[3,4]cyclopenta[1,2-c]pyrazole-3-carbonyl]-1lambda~4~,4-thiazinan-1-one] as the compound, how does the IC50 read?
The IC50 was 5.73 nM.

How did the IC50 turn out when `Cc1cccc(N2CCN(C(=O)Cn3nc(C(=O)N4CCOCC4CO)c4c3C[C@H]3C[C@@H]43)CC2)c1C` (stereo partly drawn) [Example 267, 1-[4-(2,3-dimethylphenyl)piperazin-1-yl]-2-{(3bR,4aR)-3-[3-(hydroxymethyl)morpholine-4-carbonyl]-3b,4,4a,5-tetrahydro-1H-cyclopropa[3,4]cyclopenta[1,2-c]pyrazol-1-yl}ethan-1-one] was run?
The IC50 was 7.91 nM.

How did the IC50 turn out when `Cc1cccc(N2CCN(C(=O)Cn3nc(C(=O)N4CCC5(CC4)COC(CO)C5)c4c3C[C@H]3C[C@@H]43)CC2)c1C` (stereo partly drawn) [Example 268, 1-[4-(2,3-dimethylphenyl)piperazin-1-yl]-2-{(3bR,4aR)-3-[3-(hydroxymethyl)-2-oxa-8-azaspiro[4.5]decane-8-carbonyl]-3b,4,4a,5-tetrahydro-1H-cyclopropa[3,4]cyclopenta[1,2-c]pyrazol-1-yl}ethan-1-one] was run?
The IC50 was 1.25 nM.

With `Cc1cccc(N2CCN(C(=O)Cn3nc(C(=O)N4CCS(=N)(=O)CC4)c4c3C[C@H]3C[C@@H]43)CC2)c1C` [Example 269, 4-[(3bR,4aR)-1-{2-[4-(2,3-dimethylphenyl)piperazin-1-yl]-2-oxoethyl}-3b,4,4a,5-tetrahydro-1H-cyclopropa[3,4]cyclopenta[1,2-c]pyrazole-3-carbonyl]-1-imino-1lambda~6~,4-thiazinan-1-one] as the compound, how does the IC50 read?
Its IC50 is 38.6 nM.

`Cc1cccc(N2CCN(C(=O)Cn3nc(C(=O)N4CC5CCC(C4)N5C)c4c3C[C@H]3C[C@@H]43)CC2)c1C` [Example 270, 1-[4-(2,3-dimethylphenyl)piperazin-1-yl]-2-[(3bR,4aR)-3-(8-methyl-3,8-diazabicyclo[3.2.1]octane-3-carbonyl)-3b,4,4a,5-tetrahydro-1H-cyclopropa[3,4]cyclopenta[1,2-c]pyrazol-1-yl]ethan-1-one] was tested. Which IC50 did it give?
The IC50 was 5.75 nM.

With `Cc1cccc(N2CCN(C(=O)Cn3nc(C(=O)N4CCCCC4C(C)(C)O)c4c3C[C@H]3C[C@@H]43)CC2)c1C` (stereo partly drawn) [Example 271, 1-[4-(2,3-dimethylphenyl)piperazin-1-yl]-2-{(3bR,4aR)-3-[2-(2-hydroxypropan-2-yl)piperidine-1-carbonyl]-3b,4,4a,5-tetrahydro-1H-cyclopropa[3,4]cyclopenta[1,2-c]pyrazol-1-yl}ethan-1-one] as the compound, how does the IC50 read?
Its IC50 is 3.66 nM.

From US12264134B2 (Merck Sharp & Dohme LLC, priority 2018, dated 2025)
